The values below come from patent US20250002475A1 (EPICS THERAPEUTICS, priority 2023, published 2025).

Molecules are shown by their SMILES.

This assay has as its target T1, recombinant METTL3/METTL14 complex (Homo sapiens, UniProt Q86U44).
T1 construct: purchased Active Motif 311970; host or cells: Sf9 cells
As to the kind of experiment: METTL3/14 Scintillation Proximity Assay (SPA), RNA methyltransferase activity. It is filed as biochemical. The note with it: 5.31 nM METTL3/14 complex, 250 nM RNA substrate, 1 μM 3H-SAM, 90 min; for compounds marked * best of the two separated forms. On the technique in general: SPA uses beads or plates that emit light when radiolabelled molecules are held near them.

T1 sequence (Q86U44 whole entry): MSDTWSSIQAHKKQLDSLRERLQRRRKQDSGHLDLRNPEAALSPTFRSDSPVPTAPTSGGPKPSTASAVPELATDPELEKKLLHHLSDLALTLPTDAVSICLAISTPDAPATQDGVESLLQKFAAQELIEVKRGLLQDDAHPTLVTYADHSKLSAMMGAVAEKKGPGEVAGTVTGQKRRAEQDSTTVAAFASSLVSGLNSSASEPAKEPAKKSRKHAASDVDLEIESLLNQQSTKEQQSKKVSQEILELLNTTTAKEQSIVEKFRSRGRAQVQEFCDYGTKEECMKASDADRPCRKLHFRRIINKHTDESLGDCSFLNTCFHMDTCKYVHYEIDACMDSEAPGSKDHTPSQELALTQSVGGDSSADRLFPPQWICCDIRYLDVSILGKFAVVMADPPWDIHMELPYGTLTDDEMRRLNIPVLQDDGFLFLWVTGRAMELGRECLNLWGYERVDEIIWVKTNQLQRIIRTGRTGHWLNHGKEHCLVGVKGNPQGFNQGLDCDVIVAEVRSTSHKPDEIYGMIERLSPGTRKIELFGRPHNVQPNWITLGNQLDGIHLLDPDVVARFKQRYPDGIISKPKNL
T1 sequence (Q9HCE5 whole entry partner): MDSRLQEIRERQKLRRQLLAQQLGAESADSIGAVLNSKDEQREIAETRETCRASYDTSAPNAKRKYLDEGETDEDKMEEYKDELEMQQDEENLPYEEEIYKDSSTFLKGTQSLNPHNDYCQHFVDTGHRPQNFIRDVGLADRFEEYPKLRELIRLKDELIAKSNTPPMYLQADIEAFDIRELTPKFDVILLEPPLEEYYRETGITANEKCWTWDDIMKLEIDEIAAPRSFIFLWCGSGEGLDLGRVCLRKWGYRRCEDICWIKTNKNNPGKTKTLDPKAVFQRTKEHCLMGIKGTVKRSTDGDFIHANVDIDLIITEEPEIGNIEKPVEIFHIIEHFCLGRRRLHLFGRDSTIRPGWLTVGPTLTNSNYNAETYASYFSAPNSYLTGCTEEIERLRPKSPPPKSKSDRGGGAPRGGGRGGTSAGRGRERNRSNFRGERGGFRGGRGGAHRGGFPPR

As for `CC(n1cc(-c2cncc(N3CCOCC3)c2)nn1)n1ccc(N2CCC[C@@H](NCC3CCC3)C2)cc1=O` (mixture of isomers) [Compound 129, 4-((R)-3-((cyclobutylmethyl)amino)piperidin-1-yl)-1-(1-(4-(5-morpholinopyridin-3-yl)-1H-1,2,3-triazol-1-yl)ethyl)pyridin-2(1H)-one], the IC50 is at most 50 nM.

As to `CC(NC(=O)c1cc(=S)n2ccccc2n1)c1ccc(N2CCC[C@@H](NCC3CCC3)C2)nn1` (single isomer, unassigned) [Compound 110], the IC50 is at most 50 nM.

As to `COc1cncc(C(=O)NCc2ccc(N3CCC[C@@H](NCC4CCC4)C3)nn2)c1` [Compound 004, (R)-N-((6-(3-((cyclobutylmethyl)amino)piperidin-1-yl)pyridazin-3-yl)methyl)-5-methoxynicotinamide], the IC50 lay in the range of 500 to 3500 nM. In the case of `CC(n1cc(-c2cncc3[nH]ncc23)nn1)n1ccc(N2CCC[C@@H](NCC3CCC3)C2)cc1=O` (stereo partly shown) [Compound 147] it was at most 50 nM; in that of `O=C(Nc1cnc2[nH]ccc2c1)C1(c2ccc(N3CCC[C@@H](NCC4CCC4)C3)cn2)COC1` [Compound 299, (R)-3-(5-(3-((cyclobutylmethyl)amino)piperidin-1-yl)pyridin-2-yl)-N-(1H-pyrrolo[2,3-b]pyridin-5-yl)oxetane-3-carboxamide], 50 to 500 nM. For `COc1cncc(-c2nnn(Cc3ccc(N4CCC[C@@H](NCC5CCC5)C4)cc3)n2)c1` [Compound 145, (R)-N-(cyclobutylmethyl)-1-(4-((5-(5-methoxypyridin-3-yl)-2H-tetrazol-2-yl)methyl)phenyl)piperidin-3-amine], the 50% inhibitory concentration (IC50) fell in the range of 50 to 500 nM. Regarding `COc1cncc(-c2nnc(C(C)n3ccc(N4CCC[C@@H](NCC5CCC5)C4)cc3=O)s2)c1` (stereo partly drawn) [Compound 119, 4-((R)-3-((cyclobutylmethyl)amino)piperidin-1-yl)-1-(1-(5-(5-methoxypyridin-3-yl)-1,3,4-thiadiazol-2-yl)ethyl)pyridin-2(1H)-one], the IC50 was at most 50 nM. As to `O=c1[nH]c(-c2cn(Cc3ccc(N4CCC[C@@H](NCC5CCC5)C4)nn3)nn2)cc2ccccc12` [Compound 048, (R)-3-(1-((6-(3-((cyclobutylmethyl)amino)piperidin-1-yl)pyridazin-3-yl)methyl)-1H-1,2,3-triazol-4-yl)isoquinolin-1(2H)-one], the IC50 was at most 50 nM. The result for `COc1cc(-c2cn(Cc3ccc(N4CCC[C@@H](NC5CCOC5)C4)nn3)nn2)c2cn[nH]c2c1` (single isomer, unassigned) [Compound 033] reads at most 50 nM.

Take `CNc1cncc(-c2cn(C(C)n3ccc(N4CCC[C@@H](NCC5CCC5)C4)cc3=O)nn2)n1` (stereo partly drawn) [Compound 121, 4-((R)-3-((cyclobutylmethyl)amino)piperidin-1-yl)-1-(1-(4-(6-(methylamino)pyrazin-2-yl)-1H-1,2,3-triazol-1-yl)ethyl)pyridin-2(1H)-one]: the IC50 was at most 50 nM.

Consider `COc1cncc(-c2cn(C(C)n3ccc(N4CCC[C@@H](NCC5CCC5)C4)cc3=O)nn2)n1` (single isomer, unassigned) [Compound 105], for which the IC50 was at most 50 nM. For `COc1cnc(C#N)c(-c2cn(C(C)n3ccc(N4CCC[C@@H](NCC5CCC5)C4)cc3=O)nn2)c1` (single isomer, unassigned) [Compound 109], the IC50 was at most 50 nM. Turning to `COc1cncc(-c2ncc(C(C)(O)c3ccc(N4CCC[C@@H](NCC5CCC5)C4)cn3)s2)c1` (single isomer, unassigned) [Compound 165], the IC50 was at most 50 nM. As for `CC(C(=O)Nc1cncc(N2CCCC2)c1)c1ccc(N2CCC[C@@H](NCC3CCC3)C2)cn1` (single isomer, unassigned) [Compound 264], the IC50 was at most 50 nM. The result for `CC(NC(=S)c1cc(=O)n2ccccc2n1)c1ccc(N2CCC[C@@H](NCC3CCC3)C2)nn1` (mixture of isomers) [Compound 111, N-(1-(6-((R)-3-((cyclobutylmethyl)amino)piperidin-1-yl)pyridazin-3-yl)ethyl)-4-oxo-4H-pyrido[1,2-a]pyrimidine-2-carbothioamide] reads 50 to 500 nM; that for `COc1cncc(-c2cn(Cc3ccc(N4CCCCC(NCC5CCC5)C4)nn3)nn2)c1` (stereo not shown) [Compound 101, N-(cyclobutylmethyl)-1-(6-((4-(5-methoxypyridin-3-yl)-1H-1,2,3-triazol-1-yl)methyl)pyridazin-3-yl)azepan-3-amine], 50 to 500 nM; that for `Cn1c(N2CCCC2)cc(-c2cn(C3(c4ccc(N5CCC[C@@H](NCC6CC6)C5)cn4)COC3)nn2)cc1=O` [Compound 314, (R)-4-(1-(3-(5-(3-((cyclopropylmethyl)amino)piperidin-1-yl)pyridin-2-yl)oxetan-3-yl)-1H-1,2,3-triazol-4-yl)-1-methyl-6-(pyrrolidin-1-yl)pyridin-2(1H)-one], at most 50 nM. The result for `COc1cncc(-c2cn(Cc3ccc(N4C[C@H](NCC5CCC5)CC[C@@H]4C)nn3)nn2)c1` [Compound 038, (3R,6S)-N-(cyclobutylmethyl)-1-(6-((4-(5-methoxypyridin-3-yl)-1H-1,2,3-triazol-1-yl)methyl)pyridazin-3-yl)-6-methylpiperidin-3-amine] reads 50 to 500 nM. In the case of `CC(C(=O)Nc1cncc(N(C)C)c1)n1ccc(N2CCC[C@@H](NCC3CCC3)C2)cc1=O` (mixture of isomers) [Compound 162, 2-(4-((R)-3-((cyclobutylmethyl)amino)piperidin-1-yl)-2-oxopyridin-1(2H)-yl)-N-(5-(dimethylamino)pyridin-3-yl)propanamide] it was 50 to 500 nM; in that of `CC(NC(=O)c1cc(=O)n2ccccc2n1)c1ccc(N2CCC[C@@H](NC3CCCC3)C2)cn1` (single isomer, unassigned) [Compound 117], 50 to 500 nM. `O=c1[nH]c(-c2cn(Cc3ccc(N4CCC[C@@H](NCC5CCC5)C4)nn3)nn2)nc2ccccc12` [Compound 029, (R)-2-(1-((6-(3-((cyclobutylmethyl)amino)piperidin-1-yl)pyridazin-3-yl)methyl)-1H-1,2,3-triazol-4-yl)quinazolin-4(3H)-one]: the IC50 fell in the range of 50 to 500 nM. On to `O=c1cc(-c2cn(Cc3ccc(N4CCC[C@@H](NCC5CCC5)C4)cn3)nn2)nc2ccccn12` [Compound 127, (R)-2-(1-((5-(3-((cyclobutylmethyl)amino)piperidin-1-yl)pyridin-2-yl)methyl)-1H-1,2,3-triazol-4-yl)-4H-pyrido[1,2-a]pyrimidin-4-one], for which the IC50 is at most 50 nM. In the case of `CC(C(=O)Nc1cc(=O)n2ccccc2n1)c1ccc(N2CCC[C@@H](NCC3CCC3)C2)cn1` (stereo partly drawn) [Compound 265, 2-(5-((R)-3-((cyclobutylmethyl)amino)piperidin-1-yl)pyridin-2-yl)-N-(4-oxo-4H-pyrido[1,2-a]pyrimidin-2-yl)propanamide] it was at most 50 nM; in that of `CC(C(=O)Nc1cncc(N2CCCC2)n1)c1ccc(N2CCC[C@@H](NCC3CCC3)C2)cc1` (single isomer, unassigned) [Compound 294], at most 50 nM; in that of `CNc1cncc(-c2cn(C(C)n3ccc(N4CCC[C@@H](NCC5CCC5)C4)cc3=O)nn2)c1` (mixture of isomers) [Compound 096, 4-((R)-3-((cyclobutylmethyl)amino)piperidin-1-yl)-1-(1-(4-(5-(methylamino)pyridin-3-yl)-1H-1,2,3-triazol-1-yl)ethyl)pyridin-2(1H)-one], at most 50 nM.

What is called IC50 is the concentration needed to halve the response being measured.
